In US7235379B2, “Method and medium for the detection/identification of microorgranisms with esterase activity” (Bio Merieux, priority 2000, dated 2007):
Counter-ions that a name gives are not always drawn. Like-named read-outs stand apart in the source and are kept apart here.

Key:
[1] = tested on: Listeria monocytogenes 079; test: Ex.3 colony coloration, 5-bromo-4-chloro-3-indolyl nonanoate 250 mg/l, DMSO/Tween 20; assay type: cell-based; also: key: 0: no activity; 0.1: trace of coloration; 0.5: very pale coloration; 1: distinct coloration of low intensity; 2: clear coloration of medium intensity; 3: intense coloration; 4: very intense coloration
Description: (§4) The esterase substrate tested is 5-bromo-4-chloro-3-indolyl nonanoate. A 40 g/l stock solution of substrate is prepared in a mixture of 40% dimethyl sulfoxide and 60% Tween 20. A sufficient volume is added to a supercooled MacConkey medium (without neutral red) to give a substrate concentration of 250 mg/l.

[2] = tested on: bacterial strains exhibiting an esterase activity; settings: between 2 and 16 ml/l, more precisely between 4 and 8 ml/l
Description: (§1) The esterase substrate tested is 5-bromo-3-indolyl nonanoate. A 40 g/l stock solution of substrate is prepared in a mixture of 40% dimethyl sulfoxide and 60% Tween 20. A sufficient volume is added to a supercooled MacConkey medium (without neutral red) to give a substrate concentration of 500 mg/l.
(§2) Microorganisms originating from the Applicant's collection were inoculated onto this medium from a 0.5 McFarland suspension by isolation in three quadrants. The dishes were incubated at 37° C. for 48 hours. The colonies formed were examined visually after 24 and 48 hours of incubation. The coloration of these colonies and the intensity of this coloration were noted.

[3] = tested on: Acinetobacter calcoaceticus 034; test: Ex.1 colony coloration, 5-bromo-3-indolyl nonanoate, DMSO/Tween 20, MacConkey; assay type: cell-based
[4] = tested on: Serratia marcescens 038; test: as above; assay type: cell-based
[5] = tested on: bacterial strains exhibiting an esterase activity; settings: between 2 and 16 ml/l, more precisely between 4 and 8 ml/l; remark: listed apart in the source
Description: The esterase substrate tested is 5-bromo-3-indolyl nonanoate. A 25 g/l stock solution of substrate is prepared in methanol to which 5 g/l of bile salts have been added. A sufficient volume is added to a supercooled MacConkey medium (without neutral red) to give a substrate concentration of 500 mg/l.
as §2

[6] = tested on: Salmonella enteritidis 006; test: Ex.4 colony coloration, 5-bromo-3-indolyl nonanoate, DMSO/Tween 20, MacConkey; assay type: cell-based; settings: 8 ml/l Tergitol 4
[7] = tested on: Salmonella arizonae 018; test: Ex.1 colony coloration, 5-bromo-3-indolyl nonanoate, DMSO/Tween 20, MacConkey; assay type: cell-based
[8] = tested on: Candida albicans 033; test: Ex.3 colony coloration, 5-bromo-4-chloro-3-indolyl nonanoate 250 mg/l, DMSO/Tween 20; assay type: cell-based; also: key: 0: no activity; 0.1: trace of coloration; 0.5: very pale coloration; 1: distinct coloration of low intensity; 2: clear coloration of medium intensity; 3: intense coloration; 4: very intense coloration
Description: as §4

[9] = tested on: Salmonella spp. 017
Description: as §1, with “5-bromo-4-chloro-3-indolyl” for “5-bromo-3-indolyl”, “250” for “500”
as §2
(§3) Note: In the above Examples, the numbers following the strains correspond to the number of each strain referenced in the Applicant's collection. The intensity of coloration corresponds to an arbitrary scale defined as follows: […]

[10] = tested on: Salmonella paratyphi A 006
Description: as §1, with “5-bromo-4-chloro-3-indolyl” for “5-bromo-3-indolyl”, “250” for “500”
as §2, §3

[11] = tested on: Hafnia alvei 025; test: Ex.4 colony coloration, 5-bromo-3-indolyl nonanoate, DMSO/Tween 20, MacConkey; assay type: cell-based; parameters: key: —: absence of colour or intensity; settings: 8 ml/l Tergitol 4
[12] = tested on: Candida tropicalis 030; test: Ex.3 colony coloration, 5-bromo-4-chloro-3-indolyl nonanoate 250 mg/l, DMSO/Tween 20; assay type: cell-based; also: key: 0: no activity; 0.1: trace of coloration; 0.5: very pale coloration; 1: distinct coloration of low intensity; 2: clear coloration of medium intensity; 3: intense coloration; 4: very intense coloration
Description: as §4

[13] = tested on: Listeria innocua 029; test: as above; assay type: cell-based; also: key: 0: no activity; 0.1: trace of coloration; 0.5: very pale coloration; 1: distinct coloration of low intensity; 2: clear coloration of medium intensity; 3: intense coloration; 4: very intense coloration
Description: as §4

CCCCC(CC)CCC(CC(C)C)OS(=O)(=O)O (centres unmarked) [Tergitol 4, 7-ethyl-2-methyl-4-undecanoate hydrogensulfate or its sodium salt]
intensity of coloration ([1]; 0.001 ml/l, 24 h): 2
intensity of coloration ([1]; 0.001 ml/l, 48 h): 3
intensity of coloration ([1]; 0.01 ml/l, 24 h): 3
intensity of coloration ([1]; 0.01 ml/l, 48 h): 3
intensity of coloration ([1]; 0.1 ml/l, 24 h): 2
intensity of coloration ([1]; 0.1 ml/l, 48 h): 3
intensity of coloration ([1]; 1 ml/l (1st col), 24 h): 2
intensity of coloration ([1]; 1 ml/l (1st col), 48 h): 3
intensity of coloration ([1]; 1 ml/l (2nd col), 24 h): 2
intensity of coloration ([1]; 1 ml/l (2nd col), 48 h): 3
effect on intensity of coloration [2]: significantly increases the intensity of coloration
color ([3]; 2 ml/l, 24 h): gray
intensity of coloration ([3]; 2 ml/l, 24 h): 2
color ([3]; 2 ml/l, 48 h): gray
intensity of coloration ([3]; 2 ml/l, 48 h): 3
color ([3]; 4 ml/l, 24 h): gray
intensity of coloration ([3]; 4 ml/l, 24 h): 3
color ([3]; 4 ml/l, 48 h): gray
intensity of coloration ([3]; 4 ml/l, 48 h): 3
color ([3]; 8 ml/l, 24 h): gray
intensity of coloration ([3]; 8 ml/l, 24 h): 3
color ([3]; 8 ml/l, 48 h): gray
intensity of coloration ([3]; 8 ml/l, 48 h): 4
color ([3]; 16 ml/l, 24 h): gray
intensity of coloration ([3]; 16 ml/l, 24 h): 0.5
color ([3]; 16 ml/l, 48 h): gray
intensity of coloration ([3]; 16 ml/l, 48 h): 0.5
color ([4]; 2 ml/l, 24 h): gray
intensity of coloration ([4]; 2 ml/l, 24 h): 2
color ([4]; 2 ml/l, 48 h): gray
intensity of coloration ([4]; 2 ml/l, 48 h): 3
color ([4]; 4 ml/l, 24 h): gray
intensity of coloration ([4]; 4 ml/l, 24 h): 2
color ([4]; 4 ml/l, 48 h): gray
intensity of coloration ([4]; 4 ml/l, 48 h): 4
color ([4]; 8 ml/l, 24 h): gray
intensity of coloration ([4]; 8 ml/l, 24 h): 2
color ([4]; 8 ml/l, 48 h): gray
intensity of coloration ([4]; 8 ml/l, 48 h): 4
color ([4]; 16 ml/l, 24 h): gray
intensity of coloration ([4]; 16 ml/l, 24 h): 2
color ([4]; 16 ml/l, 48 h): gray
intensity of coloration ([4]; 16 ml/l, 48 h): 4
effect on intensity of coloration [5]: significantly increases the intensity of coloration
color ([6]; 24 h): gray
intensity of coloration ([6]; 24 h): 3
color ([6]; 48 h): gray
intensity of coloration ([6]; 48 h): 3
color ([7]; 2 ml/l, 24 h): gray
intensity of coloration ([7]; 2 ml/l, 24 h): 2
color ([7]; 2 ml/l, 48 h): gray
intensity of coloration ([7]; 2 ml/l, 48 h): 2.5
color ([7]; 4 ml/l, 24 h): gray
intensity of coloration ([7]; 4 ml/l, 24 h): 3.5
color ([7]; 4 ml/l, 48 h): gray
intensity of coloration ([7]; 4 ml/l, 48 h): 3.5
color ([7]; 8 ml/l, 24 h): gray
intensity of coloration ([7]; 8 ml/l, 24 h): 3.5
color ([7]; 8 ml/l, 48 h): gray
intensity of coloration ([7]; 8 ml/l, 48 h): 3.5
color ([7]; 16 ml/l, 24 h): gray
intensity of coloration ([7]; 16 ml/l, 24 h): 3.5
color ([7]; 16 ml/l, 48 h): gray
intensity of coloration ([7]; 16 ml/l, 48 h): 4
intensity of coloration ([8]; 0.001 ml/l, 24 h): 0.5
intensity of coloration ([8]; 0.001 ml/l, 48 h): 3
intensity of coloration ([8]; 0.01 ml/l, 24 h): 0.5
intensity of coloration ([8]; 0.01 ml/l, 48 h): 3
intensity of coloration ([8]; 0.1 ml/l, 24 h): 0.5
intensity of coloration ([8]; 0.1 ml/l, 48 h): 3
intensity of coloration ([8]; 1 ml/l (1st col), 24 h): 0.5
intensity of coloration ([8]; 1 ml/l (1st col), 48 h): 3
intensity of coloration ([8]; 1 ml/l (2nd col), 24 h): 0.5
intensity of coloration ([8]; 1 ml/l (2nd col), 48 h): 3
intensity of coloration ([9]; 0.001 ml/l, 24 h): 2
intensity of coloration ([9]; 0.001 ml/l, 48 h): 3
intensity of coloration ([9]; 0.01 ml/l, 24 h): 2
intensity of coloration ([9]; 0.01 ml/l, 48 h): 3
intensity of coloration ([9]; 0.1 ml/l, 24 h): 2
intensity of coloration ([9]; 0.1 ml/l, 48 h): 3
intensity of coloration ([9]; 1 ml/l (1st col), 24 h): 2
intensity of coloration ([9]; 1 ml/l (1st col), 48 h): 3
intensity of coloration ([9]; 1 ml/l (2nd col), 24 h): 2
intensity of coloration ([9]; 1 ml/l (2nd col), 48 h): 3
intensity of coloration ([10]; 0.001 ml/l, 24 h): 0.1
intensity of coloration ([10]; 0.001 ml/l, 48 h): 0.5
intensity of coloration ([10]; 0.01 ml/l, 24 h): 0.1
intensity of coloration ([10]; 0.01 ml/l, 48 h): 1
intensity of coloration ([10]; 0.1 ml/l, 24 h): 0.1
intensity of coloration ([10]; 0.1 ml/l, 48 h): 0.5
intensity of coloration ([10]; 1 ml/l (1st col), 24 h): 0.5
intensity of coloration ([10]; 1 ml/l (1st col), 48 h): 2
intensity of coloration ([10]; 1 ml/l (2nd col), 24 h): 0.5
intensity of coloration ([10]; 1 ml/l (2nd col), 48 h): 2
color ([11]; 24 h): —
color ([11]; 48 h): —
intensity of coloration ([12]; 0.001 ml/l, 24 h): 2
intensity of coloration ([12]; 0.001 ml/l, 48 h): 3
intensity of coloration ([12]; 0.01 ml/l, 24 h): 2
intensity of coloration ([12]; 0.01 ml/l, 48 h): 3
intensity of coloration ([12]; 0.1 ml/l, 24 h): 2
intensity of coloration ([12]; 0.1 ml/l, 48 h): 3
intensity of coloration ([12]; 1 ml/l (1st col), 24 h): 0.5
intensity of coloration ([12]; 1 ml/l (1st col), 48 h): 3
intensity of coloration ([12]; 1 ml/l (2nd col), 24 h): 0.5
intensity of coloration ([12]; 1 ml/l (2nd col), 48 h): 3
intensity of coloration ([13]; 0.001 ml/l, 24 h): 0.1
intensity of coloration ([13]; 0.001 ml/l, 48 h): 2
intensity of coloration ([13]; 0.01 ml/l, 24 h): 0.1
intensity of coloration ([13]; 0.01 ml/l, 48 h): 2
intensity of coloration ([13]; 0.1 ml/l, 24 h): 0.1
intensity of coloration ([13]; 0.1 ml/l, 48 h): 2
intensity of coloration ([13]; 1 ml/l (1st col), 24 h): 0.1
intensity of coloration ([13]; 1 ml/l (1st col), 48 h): 2
intensity of coloration ([13]; 1 ml/l (2nd col), 24 h): 0.1
intensity of coloration ([13]; 1 ml/l (2nd col), 48 h): 2
